This is an account of results in patent US20250281483A1, “TRANSCRIPTION FACTOR EB ACTIVATORS AND USES THEREOF” (Astellas Engineered Small Molecules US, Incorporated, priority 2022, published 2025).

What is called EC50 is the concentration needed to bring the measured effect to its halfway point.

The target of this assay is T1, TFEB (Homo sapiens, UniProt P19484).
T1 sequence (P19484 1-476): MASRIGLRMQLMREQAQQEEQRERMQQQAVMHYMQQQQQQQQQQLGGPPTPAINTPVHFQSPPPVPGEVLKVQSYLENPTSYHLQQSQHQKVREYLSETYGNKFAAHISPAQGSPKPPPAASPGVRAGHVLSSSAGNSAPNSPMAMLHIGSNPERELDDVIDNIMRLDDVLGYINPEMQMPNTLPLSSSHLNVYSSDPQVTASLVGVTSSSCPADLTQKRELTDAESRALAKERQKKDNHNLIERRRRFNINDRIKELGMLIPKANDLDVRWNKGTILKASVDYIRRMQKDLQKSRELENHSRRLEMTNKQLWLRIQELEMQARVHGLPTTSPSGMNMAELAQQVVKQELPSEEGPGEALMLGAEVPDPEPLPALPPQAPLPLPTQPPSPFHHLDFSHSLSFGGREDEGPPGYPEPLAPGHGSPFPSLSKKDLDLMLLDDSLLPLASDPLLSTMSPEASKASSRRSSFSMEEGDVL
Kind of assay: Tfeb-Translocation Assay HEK-293T-oEX-Tfeb-GFP Cell Line. Type of assay: cell-based. The note with it: HEK-293T-oEX-TFEB-GFP cells; translocation positive cells ratio; read-out: TFEB Translocation EC50. How it is done: Tfeb-Translocation Assay HEK-293T-oEX-Tfeb-GFP Cell Line
• 1). Added 2×10^6 cell into a T75 flask with 15 mL DiVEM medium (with 10% FBS, 1% PS, 1×GLUTAMAX, 1×MEM NEAA, 1×HEPES Buffer Solution and 5 ug/mL blasticidin). • 2). Culturing for 48-72 hours. Cells in logarithmic growth phase were taken for experiment. The other cells were passaged as described in step 1. • 3). Seeded 1×10^4 cells/30 μL/well into 384-well plate (BD 356663). Cultured overnight at 37° C. & 5% CO2 incubator. • 4). Note: Used cells <10 passage
• 1). Compounds were firstly diluted by DMSO to the stock needed (10 mM), and aliquoted and stored at −20° C. • 2). Took one aliquot each time and made 3-fold or 2-fold dilutions as indicated, total 10 doses plus one DMSO control well in the source plate. • 3). Added 150 or 90 nL/well compounds solution to the assay plate by ECHO and incubated for 6 or 18 hours respectively at 37° C. & 5% CO2 incubator.
• 1). Added 30 uL 8% PFA into the wells and incubated 20 min at room temperature. • 2). Discarded the medium, washed the wells twice with DPBS to eliminate foam and bubbles in the well.
• 1). Diluted Hoechest-333824 in DPBS to get 2 μg/mL solution and added 30 uL/well into assay plate, incubated at room temperature for 20 mins. • 2). Discarded the supernatant, washed the wells twice with DPBS to eliminate foam and bubbles in the well. Then added DPBS 20 uL/well.
3). Scanned Plate by Operetta.
• 1). Reference compound: Torin 1 • 2). Test compounds: C1, C2, C3, C4, C5, C6. • 3). Diluted compounds in 384 LDV-dilution plate according to the dilution plate map • 4). Compounds starting concentration: Torin 1: 300 nM and Test compounds: 50 uM.
• 1). Selected all nucleus by Operetta as ‘All Cells’ • 2). Calculated the EGFP average intensity inside the Nucleus region. • 3). Selected population that the EGFP mean intensity inside the Nucleus region>background as the EGFP-positive cells • 4). Selected the Surrounding region of the nucleus and calculated the EGFP mean intensity of the region • 5). Inside the EGFP-positive cell population, selected the cells with EGFP mean intensity inside the Nucleus region/the EGFP mean intensity inside the surrounding region=1.2 (This ratio could be slightly adjusted from time to time) as the Translocation positive cell. • 6). Outputted the ratio of Translocation positive cell/EGFP-positive cells as the Translocation Positive Ratio. • 7). Each time set the ratio of DMSO group (Control Group) as ˜15% and then normalized the compound group to the DMSO group.
With `Cc1nc2ccn(CC34CC(C3)C4)c(=O)c2cc1C(=O)NCc1ccccn1` [Example 60, 6-(bicyclo[1.1.1]pentan-1-ylmethyl)-2-methyl-5-oxo-N-(pyridin-2-ylmethyl)-5,6-dihydro-1,6-naphthyridine-3-carboxamide], the EC50 lay in the range of 1000 to 10000 nM.
In the case of `COCCn1ccc2nc(C)c(C(=O)NCc3ccccn3)cc2c1=O` [Example 30, 6-(2-methoxyethyl)-2-methyl-5-oxo-N-(pyridin-2-ylmethyl)-5,6-dihydro-1,6-naphthyridine-3-carboxamide] it was 1000 to 10000 nM; in that of `Cc1nc2ccn(Cc3ccccn3)c(=O)c2cc1C(=O)NCc1ccccn1` [Example 41, 2-methyl-5-oxo-N,6-bis(pyridin-2-ylmethyl)-5,6-dihydro-1,6-naphthyridine-3-carboxamide], 1000 to 10000 nM.
As to `Cc1nc2ccn(CC3CCCO3)c(=O)c2cc1C(=O)NCc1ccc(Cl)cc1` (stereo not drawn) [Example 11, N-(4-chlorobenzyl)-2-methyl-5-oxo-6-((tetrahydrofuran-2-yl)methyl)-5,6-dihydro-1,6-naphthyridine-3-carboxamide], the EC50 was 1000 to 10000 nM.
To `Cc1nc2ccn(Cc3ccccc3)c(=O)c2cc1C(=O)NCc1cc(F)ccn1` [Example 39, 6-benzyl-N-((4-fluoropyridin-2-yl)methyl)-2-methyl-5-oxo-5,6-dihydro-1,6-naphthyridine-3-carboxamide] belongs 100 to 1000 nM; to `Cc1nc2ccn(Cc3ccccc3)c(=O)c2cc1C(=O)NCc1cccs1` [Example 71, 6-benzyl-2-methyl-5-oxo-N-(thiophen-2-ylmethyl)-5,6-dihydro-1,6-naphthyridine-3-carboxamide], 100 to 1000 nM; to `Cc1nc2ccn(Cc3ccc(F)c(F)c3)c(=O)c2cc1C(=O)NCc1ccccn1` [Example 61, 6-(3,4-difluorobenzyl)-2-methyl-5-oxo-N-(pyridin-2-ylmethyl)-5,6-dihydro-1,6-naphthyridine-3-carboxamide], < 100 nM.
In the case of `Cc1nc2ccn(Cc3ccccc3)c(=O)c2cc1C(=O)NCc1ccn(C)n1` [Example 14, 6-benzyl-2-methyl-N-((1-methyl-1H-pyrazol-3-yl)methyl)-5-oxo-5,6-dihydro-1,6-naphthyridine-3-carboxamide] it was 100 to 1000 nM.
`Cc1nc2ccn(Cc3ccc(Cl)c(F)c3)c(=O)c2cc1C(=O)NCc1ccccn1` [Example 75, 6-(4-chloro-3-fluorobenzyl)-2-methyl-5-oxo-N-(pyridin-2-ylmethyl)-5,6-dihydro-1,6-naphthyridine-3-carboxamide]: the EC50 was < 100 nM.
In the case of `Cc1nc(CNC(=O)c2cc3c(=O)n(Cc4cccc(F)c4)ccc3nc2C)co1` [Example 79, 6-(3-fluorobenzyl)-2-methyl-N-((2-methyloxazol-4-yl)methyl)-5-oxo-5,6-dihydro-1,6-naphthyridine-3-carboxamide] it was < 100 nM; in that of `Cc1nc2ccn(Cc3ccccc3)c(=O)c2cc1C(=O)NCc1cnn(C)c1` [Example 15, 6-benzyl-2-methyl-N-((1-methyl-1H-pyrazol-4-yl)methyl)-5-oxo-5,6-dihydro-1,6-naphthyridine-3-carboxamide], 100 to 1000 nM.
To `Cc1ccc(Cn2ccc3nc(C)c(C(=O)NCc4ccccn4)cc3c2=O)cc1` [Example 54, 2-methyl-6-(4-methylbenzyl)-5-oxo-N-(pyridin-2-ylmethyl)-5,6-dihydro-1,6-naphthyridine-3-carboxamide] belongs < 100 nM.
Regarding `Cc1nc2ccn(Cc3ccccc3)c(=O)c2cc1C(=O)NCc1cccnc1` [Example 23, 6-benzyl-2-methyl-5-oxo-N-(pyridin-3-ylmethyl)-5,6-dihydro-1,6-naphthyridine-3-carboxamide], the EC50 was in the range of 100 to 1000 nM.
In the case of `Cc1nnc(CNC(=O)c2cc3c(=O)n(Cc4ccccc4)ccc3nc2C)o1` [Example 13, 6-benzyl-2-methyl-N-((5-methyl-1,3,4-oxadiazol-2-yl)methyl)-5-oxo-5,6-dihydro-1,6-naphthyridine-3-carboxamide] it was 1000 to 10000 nM.
To `CNC(=O)c1cc2c(=O)n(Cc3ccccc3)ccc2nc1C` [Example 42, 6-benzyl-N,2-dimethyl-5-oxo-5,6-dihydro-1,6-naphthyridine-3-carboxamide] belongs ≥ 10000 nM; to `Cc1nc2ccn(Cc3ccc(F)c(F)c3)c(=O)c2cc1C(=O)NCc1ccc(F)cn1` [Example 63, 6-(3,4-difluorobenzyl)-N-((5-fluoropyridin-2-yl)methyl)-2-methyl-5-oxo-5,6-dihydro-1,6-naphthyridine-3-carboxamide], < 100 nM.
In the case of `Cc1nc2ccn(Cc3cccnc3)c(=O)c2cc1C(=O)NCc1ccccn1` [Example 58, 2-methyl-5-oxo-N-(pyridin-2-ylmethyl)-6-(pyridin-3-ylmethyl)-5,6-dihydro-1,6-naphthyridine-3-carboxamide] it was ≥ 10000 nM; in that of `Cc1nc2ccn(Cc3ccccc3)c(=O)c2cc1C(=O)NCc1ncccc1F` [Example 36, 6-benzyl-N-((3-fluoropyridin-2-yl)methyl)-2-methyl-5-oxo-5,6-dihydro-1,6-naphthyridine-3-carboxamide], 1000 to 10000 nM; in that of `Cc1nc2ccn(Cc3ccccc3)c(=O)c2cc1C(=O)NCc1ccc2c(c1)OCO2` [Example 69, N-(benzo[d][1,3]dioxol-5-ylmethyl)-6-benzyl-2-methyl-5-oxo-5,6-dihydro-1,6-naphthyridine-3-carboxamide], < 100 nM.
Regarding `COCCOCCOc1ccc(CNC(=O)c2cc3c(=O)n(Cc4ccc(Cl)cc4)ccc3nc2C)nc1` [Example 77, 6-(4-chlorobenzyl)-N-((5-(2-(2-methoxyethoxy)ethoxy)pyridin-2-yl)methyl)-2-methyl-5-oxo-5,6-dihydro-1,6-naphthyridine-3-carboxamide], the EC50 was ≥ 10000 nM.
To `Cc1nc2ccn(Cc3ccccc3)c(=O)c2cc1C(=O)NCc1ccc(Cl)cn1` [Example 38, 6-benzyl-N-((5-chloropyridin-2-yl)methyl)-2-methyl-5-oxo-5,6-dihydro-1,6-naphthyridine-3-carboxamide] belongs < 100 nM.
As for “6-benzyl-2-methyl-N-((4-methyloxazol-2-yl)methyl)-5-oxo-5,6-dihydro-1,6-naphthyridine-3-carboxamide [Example 66]”, the concentration giving a half-maximal response (EC50) lay within 100 to 1000 nM.
In the case of `Cc1cnc(Cn2ccc3nc(C)c(C(=O)NCc4ccccn4)cc3c2=O)o1` [Example 48, 2-methyl-6-((5-methyloxazol-2-yl)methyl)-5-oxo-N-(pyridin-2-ylmethyl)-5,6-dihydro-1,6-naphthyridine-3-carboxamide] it was ≥ 10000 nM; in that of `Cc1nc2ccn(Cc3cccnc3)c(=O)c2cc1C(=O)NCc1ccc(Cl)cc1` [Comparator 1, reference compound], 1000 to 10000 nM.
In the case of `Cc1nc2ccn(Cc3ccccc3)c(=O)c2cc1C(=O)NC(C)c1ccccn1` (stereo not drawn) [Example 28, 6-benzyl-2-methyl-5-oxo-N-(1-(pyridin-2-yl)ethyl)-5,6-dihydro-1,6-naphthyridine-3-carboxamide] it was ≥ 10000 nM; in that of `Cc1ccc(CNC(=O)c2cc3c(=O)n(Cc4ccc(F)cn4)ccc3nc2C)o1` [Example 2, 6-((5-fluoropyridin-2-yl)methyl)-2-methyl-N-((5-methylfuran-2-yl)methyl)-5-oxo-5,6-dihydro-1,6-naphthyridine-3-carboxamide], 100 to 1000 nM.
Consider `Cc1nc2ccn(Cc3ccccc3)c(=O)c2cc1C(=O)NCc1cccnn1` [Example 33, 6-benzyl-2-methyl-5-oxo-N-(pyridazin-3-ylmethyl)-5,6-dihydro-1,6-naphthyridine-3-carboxamide], for which the EC50 fell in the range of 1000 to 10000 nM.
